Measured values reported in patent EP4653435A1, “PRMT5-MTA INHIBITOR” (Suzhou Puhe Biopharma Co., Ltd., priority 2023, dated 2024).
Read-outs that look alike come from different tables or passages of the source.

How the values were obtained:
HCT116-MTAPwt = test: 2D antiproliferative assay (CTG cell viability), wild-type cells; type: cell-based; settings: Homo sapiens, HCT-116, 7-10 days
Procedure: (§1) HCT116 wild-type and MTAP-deficient cells were cultured in McCoy's 5A medium containing 10% FBS and 1% penicillin-streptomycin, and cultured in a 37°C, 5% CO2 constant temperature incubator. 40 µL of cell suspension was introduced into each well of a 384-well microplate. 40 nL of different concentrations of test compounds were added to each well using an Echo, before culturing in a 37°C, 5% CO2 constant temperature incubator for 7-10 days. 40 µL of CTG solution (Promega, Cat No. G7573) was added to each well and incubated in a 37°C, 5% CO2 constant temperature incubator for 30 minutes in the dark.

HCT116-MTAPdel = test: 2D antiproliferative assay (CTG cell viability), MTAP-deficient cells; type: cell-based; settings: for IC50: Homo sapiens, HCT-116, HCT116 MTAP-deficient cells, 7-10 days, CTG, read-out: HCT116-MTAPdel/IC50/nM; for HCT116WT IMTAPdel selectivity: ratio IC50 wild type / MTAPdel, antiproliferation
Procedure: as §1

[1] = Liver microsomal stability assay, human
Procedure: (§7) The compounds to be tested were co-incubated with liver microsomes of different species with or without the addition of NADPH. The final concentration of the test compounds in the test system was 1 µM, the final concentration of NADPH was 1 mM, and the final concentration of liver microsomes was 0.5 mg/mL.

[2] = Membrane permeability: Caco-2 assay; type: in vitro ADME; settings: human; for Papp A→B / Papp B→A: Caco-2, apical pH 6.5, basolateral pH 7.4; for efflux ratio: Caco-2, Efflux Ratio = Papp(B-A)/Papp(A-B)
Procedure: The membrane permeability of the molecules of the invention was evaluated. […] Efflux Ratio = Papp(B−A) /Papp(A−B) [formula]

SDMA/HCT116-MTAPwt = test: In-cell arginine symmetric dimethylation inhibition (In-cell western, ICW), wild-type cells; type: cell-based; settings: Homo sapiens, HCT-116, 96 hours
Procedure: (§2) 60 nL of different concentrations of compounds were added to each well using an Echo, and incubated at 37°C, 5% CO2 for 96 hours.
(§3) Next, 50 µL of 4% paraformaldehyde solution was added to each well and incubated at room temperature for 20 minutes to fix the cells. The solution in the wells was removed, and each well was rinsed four times with PBS solution containing 0.1% Tween 20 (PBST). To each well was then added 30 µL of ice-cold methanol. After standing at -20°C for 10 minutes, the methanol was removed and the wells washed four times with PBST. 30 µL of Odyssey blocking solution containing 0.5% Tween 20 was added to each well and shaken for 2 hours at room temperature. The blocking solution was removed and 30 µL of primary antibody (Symmetric Di-Methyl Arginine Motif [sdma-RG] MultiMab™ Rabbit mAb mix) diluted at 1:500 in Odyssey blocking solution containing 0.5% Tween 20 was added to each well. The plates were incubated overnight at 4°C, before removing the primary antibody and rinsing each well four times with PBST, 5 minutes per rinse. Secondary antibody (goat anti-rabbit IRDye 800CW, 1:800) and nuclear stain (DRAQ5, 1:10000) diluted in Odyssey blocking solution containing 0.5% Tween 20 were then added to each well before incubating at room temperature for 2 hours in the dark. The secondary antibody was removed, and the wells rinsed four times with PBST.
(§4) The sdme-RG and DRAQ5 signals were scanned at 800 nm and 700 nm respectively on a Li-Cor Odyssey instrument and the signal values recorded. The sdme-RG/DRAQ5 ratio was used to calculate the percentage inhibition of arginine symmetric dimethylation (SDMA), and the IC50 value calculated using GraphPad Prism software.

SDMA/HCT116-MTAPdel = test: In-cell arginine symmetric dimethylation inhibition (In-cell western, ICW), MTAP-deficient cells; type: cell-based; settings: for IC50: Homo sapiens, HCT-116, HCT116 MTAP-deficient cells, 96 hours; for Selectivity wt/MTAPdel: ratio SDMA IC50 wt / MTAPdel
Procedure: as §2, §3, §4

[3] = Liver microsomal stability assay, mouse; type: in vitro ADME; settings: mouse liver microsomes 0.5 mg/mL, compound 1 µM, NADPH 1 mM, 60 minute
Procedure: as §7

[4] = Mouse pharmacokinetics testing; type: in vivo, CD1 female mice
Procedure: CD1 female mice were used as test animals and administered the compounds orally/intravenously (oral dosage was 10 mg/kg and intravenous dosage was 2 mg/kg). Test protocol: Each oral and intravenous group consisted of three mice. […] Plasma drug concentrations after oral and intravenous administration were determined by LC/MS/MS, and the collected data analyzed using AB Sciex QTRAP 6500 software.

in vitro = settings: dog, MDCK-MDR1, pH 7.4
Procedure: (§5) The membrane permeability of the molecules of the present invention was evaluated to predict their permeability to the brain.
(§6) The specific procedure was: 1. MDCK-MDR1 cells were pre-cultured at a density of 1.56*10^6 cells/mL in a 96-well plate at 37°C for 7 days. 2. The MDCKII-MDR1 plate was taken out of the incubator, rinsed twice with pre-warmed HBSS (10 mM HEPES, pH 7.4), and then incubated at 37°C for 30 minutes. 3. The stock solution of the compound to be tested was diluted with DMSO to obtain a 0.2 mM solution, and then diluted with HBSS (10 mM HEPES, pH 7.4) to obtain a 1 µM working solution. A blank control group was also diluted with DMSO to obtain a 0.2 mM solution, and then diluted with HBSS (10 mM HEPES, pH 7.4) to obtain a 1 µM working solution. The final concentration of DMSO in the culture system was 0.5%. 4. The transport rate of the drug in the apical to basolateral direction was determined: 125 µL of the 1 µM test compound solution was added to a Transwell insert (top compartment), before immediately transferring a 50 µL sample (D0 sample) from the top comparment to a new 96-well plate. The receiving plate wells (basolateral compartment) were filled with 235 µL HBSS (10 mM HEPES, pH 7.4) and incubated at 37°C for 2 hours. 5. Upon completion of the incubation, 50 µL samples were transferred from the donor and acceptor sides to the wells of a new 96-well plate, before adding 4 volumes of cold acetonitrile containing an appropriate internal standard (IS). Prior to LC-MS/MS analysis, 100 µL of the supernatant was taken and mixed with an appropriate volume of ultrapure water. Papp = (VA×[drug]acceptor)/(Area×Time×[drug]initial,donor) [formula] where VA is the volume of the receptor pores (unit:mL), Area is the surface area of the membrane (0.143 cm^2 for a Transwell-96 well permeable support), and time is the total transport time in seconds. Efflux Ratio = Papp(B−A) /Papp(A−B) [formula]

MDR1 (P-gp) = test: in vitro; settings: dog, MDCK-MDR1, pH 7.4
Procedure: as §5, §6

[5] = female, CD1, mouse, in vivo, iv, 2 mg/kg
[6] = female, CD1, mouse, in vivo, po, 10 mg/kg

## C[C@@H]1CC[C@@H](c2ccc3scnc3c2)N(C(=O)C(=O)Nc2cnc(N)c3c2cnn3C)C1 (racemic) [Compound P3]
HCT116-MTAPwt
  IC50: 827 nM
HCT116-MTAPdel
  IC50: 13 nM
[1]; liver microsomes
  CLint scaled at 1 h, 1 µM: 23.9 mL/min/kg
[2]
  Papp A→B: 2.66 ×10⁻⁶ cm/s
  Papp B→A: 34.2 ×10⁻⁶ cm/s

## Cc1cc2cc(C(=O)N(Cc3ccc(C(F)(F)F)cn3)[C@H](C)c3ncccn3)ccc2nc1N [AM9747, reference compound]
SDMA/HCT116-MTAPwt
  IC50: 332 nM
SDMA/HCT116-MTAPdel
  IC50: 0.6 nM
HCT116-MTAPwt
  IC50: 237 nM
HCT116-MTAPdel
  IC50: 7 nM

## C[C@H](c1ncccn1)N(Cc1ccc(C(F)(F)F)cn1)C(=O)C(=O)Nc1cnc(N)c2c1cnn2C [Compound P1]
[3]
  CLint scaled at 1 h, 1 µM: 177 mL/min/kg
HCT116-MTAPwt
  IC50: 196 nM
HCT116-MTAPdel
  IC50: 9 nM
  HCT116WT IMTAPdel selectivity: 22
[1]; microsomes
  CLint scaled at 1 h, 1 µM: 18 mL/min/kg

## CN(C(=O)C(=O)Nc1cnc(N)c2c1cnn2C)C1COc2cc(C(F)(F)F)ccc21 (stereo not shown) [Compound P2]
HCT116-MTAPwt
  IC50: 2680 nM
HCT116-MTAPdel
  IC50: 32 nM
  HCT116WT IMTAPdel selectivity: 84
[1]; liver microsomes
  CLint scaled at 1 µM: 13 mL/min/kg
[2]
  efflux ratio: 1.5
  Papp A→B: 13.5 ×10⁻⁶ cm/s
  Papp B→A: 20.5 ×10⁻⁶ cm/s

## C[C@H]1CC[C@H](c2ccc3scnc3c2)N(C(=O)C(=O)Nc2cnc(N)c3c2cnn3C)C1 [Compound P3b]
[4]; PO (10 mg/kg) vs IV (2 mg/kg), CD1 female mice
  F: 31%
[4]; mouse, IV (2 mg/kg), CD1 female mice, plasma, read-out: AUC0-24
  AUC(0-t): 383 ng·h/mL
[4]; mouse, IV (2 mg/kg), CD1 female mice, plasma, read-out: C0
  C0: 1650 ng/mL
[4]; mouse, IV (2 mg/kg), CD1 female mice, plasma, read-out: Cl
  clearance: 86.6 mL/min/kg
[4]; mouse, IV (2 mg/kg), CD1 female mice, plasma, read-out: T1/2 (converted)
  half-life: 0.32 h
[4]; mouse, PO (10 mg/kg), CD1 female mice, plasma, read-out: AUC0-24
  AUC(0-t): 586 ng·h/mL
[4]; mouse, PO (10 mg/kg), CD1 female mice, plasma, read-out: Cmax
  Cmax: 883 ng/mL
[4]; mouse, PO (10 mg/kg), CD1 female mice, plasma, read-out: T1/2 (converted)
  half-life: 1.1 h
[4]; mouse, PO (10 mg/kg), CD1 female mice, plasma, read-out: Tmax
  Tmax: 0.25 h
SDMA/HCT116-MTAPwt
  IC50: 578 nM
SDMA/HCT116-MTAPdel
  IC50: 0.6 nM
HCT116-MTAPwt
  IC50: 275 nM
HCT116-MTAPdel
  IC50: 2 nM

## CN(C(=O)C(=O)Nc1cnc(N)c2c1cnn2C)[C@@H]1COCc2nc(C(F)(F)F)ccc21 [Compound P9a]
[4]; female, CD1, mouse, in vivo
  F: 77%
[4]; [5]
  AUC(0-t): 3990 ng·h/mL
  C0: 5650 ng/mL
  clearance: 8.3 mL/min/kg
  half-life: 1.2 h
[4]; [6]
  AUC(0-t): 15400 ng·h/mL
  Cmax: 10800 ng/mL
  Tmax: 0.25 h
  half-life: 1.1 h
[3]
  CLint scaled at 1 µM: 10 mL/min/kg
SDMA/HCT116-MTAPwt
  IC50: 2450 nM
SDMA/HCT116-MTAPdel
  IC50: 0.9 nM
  Selectivity wt/MTAPdel: 2722
HCT116-MTAPwt
  IC50: 4000 nM
HCT116-MTAPdel
  IC50: 12 nM
  HCT116WT IMTAPdel selectivity: 333
[1]; liver microsomes
  CLint scaled at 1 µM: 2.1 mL/min/kg
[2]
  efflux ratio: 2.9
  Papp A→B: 8.65 ×10⁻⁶ cm/s
  Papp B→A: 25.1 ×10⁻⁶ cm/s

## CCN(C(=O)C(=O)Nc1cnc(N)c2c1cnn2C)[C@@H]1COc2cc(C(F)(F)F)ccc21 [Compound P19a]
[4]; mouse, in vivo
  F: 59%
[4]; mouse, in vivo, iv, 2 mg/kg
  AUC(0-t) at 24 h: 1480 ng·h/mL
  C0: 1210 ng/mL
  clearance: 21.5 mL/min/kg
  half-life: 2.1 h
[4]; mouse, in vivo, po, 10 mg/kg
  AUC(0-t) at 24 h: 4390 ng·h/mL
  Cmax: 1100 ng/mL
  Tmax: 0.5 h
  half-life: 6.8 h
[3]
  CLint scaled at 1 h, 1 µM: 110 mL/min/kg
HCT116-MTAPwt
  IC50: 1080 nM
HCT116-MTAPdel
  IC50: 6 nM
  HCT116WT IMTAPdel selectivity: 181
[1]; microsomes
  CLint scaled at 1 h, 1 µM: 20 mL/min/kg

## CCN(C(=O)C(=O)Nc1cnc(N)c2c1cnn2C)[C@@H]1COCc2nc(C(F)(F)F)ccc21 [Compound P28]
In vitro
  Papp A→B: 10.7 ×10⁻⁶ cm/s
  Papp B→A: 34 ×10⁻⁶ cm/s
MDR1 (P-gp)
  efflux ratio: 3.2
HCT116-MTAPwt
  IC50: 1190 nM
HCT116-MTAPdel
  IC50: 10 nM
  HCT116WT IMTAPdel selectivity: 119
[1]; liver microsomes
  CLint scaled at 1 µM: 4.8 mL/min/kg

## CN(C(=O)C(=O)Nc1cnc(N)c2c1cnn2C)C1COc2cc(OC(F)(F)F)ccc21 (stereo not shown) [Compound P30]
[4]; female, CD1, mouse, in vivo
  F: 74%
[4]; [5]
  AUC(0-t): 1410 ng·h/mL
  C0: 1070 ng/mL
  clearance: 23 mL/min/kg
  half-life: 2 h
[4]; [6]
  AUC(0-t): 5150 ng·h/mL
  Cmax: 1850 ng/mL
  Tmax: 0.25 h
  half-life: 1.5 h
HCT116-MTAPwt
  IC50: 3140 nM
HCT116-MTAPdel
  IC50: 13 nM
  HCT116WT IMTAPdel selectivity: 241
[1]; liver microsomes
  CLint scaled at 1 µM: 9.4 mL/min/kg

## CN(C(=O)C(=O)Nc1cnc(N)c2c1cnn2C)C1COc2cc(S(=O)(=O)C(F)(F)F)ccc21 (stereo not shown) [Compound P33]
In vitro
  Papp A→B: 6.86 ×10⁻⁶ cm/s
  Papp B→A: 28.8 ×10⁻⁶ cm/s
MDR1 (P-gp)
  efflux ratio: 4.2
HCT116-MTAPwt
  IC50: 1460 nM
HCT116-MTAPdel
  IC50: 9 nM
  HCT116WT IMTAPdel selectivity: 162

## Cc1cc(NC(=O)C(=O)N2C[C@@H](C)CC[C@@H]2c2ccc3scnc3c2)cnc1N [TNG908, reference compound]
SDMA/HCT116-MTAPwt
  IC50: 2210 nM
SDMA/HCT116-MTAPdel
  IC50: 2.6 nM
  Selectivity wt/MTAPdel: 850
HCT116-MTAPwt
  IC50: 1190 nM
HCT116-MTAPdel
  IC50: 43 nM
  HCT116WT IMTAPdel selectivity: 27
